Source: patent US20080269286A1, “Disubstituted Phenylpiperidines as Modulators of Cortical Catecholaminergic Neurotransmission” (priority 2005, published 2008)
Where a name gives a salt, the structure may show the parent alone.

Columns and labels:
[1] = tested on: DOPAC levels (3,4-dihydroxyphenylacetic acid) in the rat striatum; assay: In vivo test: neurochemistry, tissue content of DOPAC in the striatum; settings: sc, 1 h, 100 μmol/kg s.c., 60 minutes after administration, %-increase from control value
Procedure: In short, male Sprague-Dawely rats are administered the test compound 60 minutes prior to decapitation. The brain is rapidly taken out and dissected. The striatum is rapidly frozen and subsequently quantitatively analysed with respect to its content of DOPAC by means of HPLC and electrochemical detection. The number of animals used for each test compound/vehicle is 4/group.
Male Sprague-Dawley rats weighing 220-320 g are used throughout the experiments. Sixty (60) minutes following administration of the test substance, the rats are decapitated. Directly after decapitation the brain is removed from the skull and put on a glass petri bowl filled with ice. The limbic system (containing the nucleus accumbens—both the core and shell, most parts of the olfactory tubercle and ventral pallidum) is dissected using two thin, angled tweezers and put directly on foil on dry ice (carbon dioxide −78° C.). The striatum and cortex are then dissected and also put on dry ice. The time from decapitation until the last tissue is dissected varies from four to six minutes. The tissue is weighed using a Sartorius BP3105 connected to a computer and packed in labelled tin foil, then stored in an −80° C. freezer. Great care is taken in order to keep the tissue frozen until the time of neurochemical analysis. Each brain part is subsequently analyzed with respect to its content of monoamines and their metabolites.
The monoamine transmitter substances (NE (norepinephrine), DA (dopamine), 5-HT (serotonin)) as well as their amine (NM (normethanephrine), 3-MT (3-methoxytyramine)) and acid (DOPAC (3,4-dihydroxyphenylacetic acid), 5-HIAA (5-hydroxyindoleacetic acid), HVA (homovanillic acid)) metabolites are quantified in brain tissue homogenates by HPLC separations and electrochemical detection.
The analytical method is based on two chromatographic separations dedicated for amines or acids. Two chromatographic systems share a common auto injector with a 10-port valve and two sample loops for simultaneous injection on the two systems. Both systems are equipped with a reverse phase column (Luna C18(2), dp 3 μm, 50*2 mm i.d., Phenomenex) and electrochemical detection is accomplished at two potentials on glassy carbon electrodes (MF-1000. Bioanalytical Systems, Inc.). The column effluent is passed via a T-connection to the detection cell or to a waste outlet. This is accomplished by two solenoid valves, which block either the waste or detector outlet. By preventing the chromatographic front from reaching the detector, better detection conditions are achieved. […] Detection potentials relative to Ag/AgCl reference are 0.45 and 0.60V. […] Detection potentials relative to Ag/AgCl reference are 0.45 and 0.65V.

[2] = tested on: extracellular levels of dopamine and norepinephrine; assay: In vivo test: microdialysis, extracellular monoamines in striatum and prefrontal cortex; set-up: species or system rat; settings: awake and freely moving rats; for levels of dopamine and norepinephrine in the cortex (microdialysis): 50 μmol/kg s.c., pf. cortex, FIGS. 11-24
From the text: The microdialysis technique (Ungerstedt, Herrera-Marschitz et al. 1982) is a well established technique for measuring extracellular levels of neurotransmitters (Ungerstedt 1991). The microdialysis technique was used to measure the effect of drugs upon the monoamine transmitters. The appended graphs (FIGS. 9 and 10) show the effects of one established antidepressant (mirtazapine) upon monoamines in the striatum and frontal cortex, as well as for seven compounds claimed in the present invention (FIGS. 11-24; Examples 1, 3, 4, 6, 9, 10 and 11). The number of animals (n) used for each compound tested is noted in the figure legend.
Male Sprague-Dawley rats weighing 220-320 g were used throughout the experiments. Before the experiment the animals were group housed, five animals in each cage, with free access to water and food. The animals were housed at least one week after arrival prior to surgery and use in the experiments. Each rat was used only once for microdialysis. We use a modified version (Waters, Lofberg et al. 1994) of the I-shaped probe (Santiago and Westerink 1990). The dialysis membrane we use is the AN69 polyacrylonitrile/sodium methalylsulfonate copolymer (HOSPAL; o.d./i.d. 310/220 μm: Gambro, Lund, Sweden). In the dorsal striatum we use probes with an exposed length of 3 mm of dialysis membrane and in the prefrontal cortex the corresponding length is 2.5 mm. The rats were operated under isoflurane inhalation anesthesia while mounted into a Kopf stereotaxic instrument. Coordinates were calculated relative to bregma; dorsal striatum AP+1, ML±2.6, DV−6.3; Pf cortex, AP+3.2, 8° ML±1.2, DV−4.0 according to (Paxinos and Watson 1986). The dialysis probe was positioned in a burr hole under stereotaxic guidance and cemented with phosphatine dental cement.
The rats were housed individually in cages for 48 h before the dialysis experiments, allowing them to recover from surgery and minimizing the risk of drug interactions with the anaesthetic during the following experiments. During this period the rats had free access to food and water. On the day of experiment the rats were connected to a micro perfusion pump via a swivel and were replaced in the cage where they could move freely within its confinements. The perfusion medium was a Ringer's solution containing in mmol/l: NaCl; 140, CaCl2; 1.2, KCl; 3.0, MgCl2; 1.0 and ascorbic acid; 0.04 according to (Moghaddam and Bunney 1989). The pump was set to a perfusion speed of 2 μl/min and 40 μl samples were collected every 20 min.
30 μl of each sample was injected into the chromatograph. On a 10-port injector (Valco C10W), with two sample loops mounted in series (2 μl and 20 μl), each brain dialysate sample is loaded in both loops simultaneously. When the valve is switched to inject the main part of the 20 μl sample is introduced into a reverse-phase ion-pairing system for dopamine (DA), norepinephrine (NE), normetanephrine (NM), 3-methoxytyramine (3-MT) and serotonin (5-hydroxytryptamine, 5-HT) determination (large loop), while a small fraction (2 μl, from the small loop) is introduced on a reverse-phase column for the chromatography of the acidic monoamine metabolites 3,4-di-hydroxyphenylacetic acid (DOPAC), homovanillic acid (HVA) and 5-hydroxyindoleacetic acid (5-HIAA). The currents generated by the two EC detectors are converted to digital data and evaluated using Chromelion software (Dionex, Sunnyvale, Calif.) on a PC. The method sample turn over time was 4.5 min and two parallel experiments are normally analysed simultaneously on the system. After the experiment the rats were uncoupled from the perfusion pump and decapitated. Their brains were rapidly taken out and fixed in Neo-fix solution (Kebo-lab, Sweden) for subsequent inspection of probe localisation. The Animal Ethics Committee in Göteborg, Sweden approved the procedures applied in these experiments. • Moghaddam, B. and B. S. Bunney (1989). […]

For Fc1ccc(C2CCNCC2)cc1C(F)F, the change in vivo at 100 µmol/kg [1] was 17%.

In the case of Fc1cc(F)cc(C2CCNCC2)c1 (as salt: fumaric acid salt) [Example 3, 4-(3,5-DIFLUOROPHENYL)PIPERIDINE], the melting point is reported as 178 °C.

In the case of Fc1ccc(C2CCNCC2)cc1C(F)(F)F (as salt: hydrochloric acid salt), the melting point is reported as 195 to 196 °C.

Fc1ccc(C2CCNCC2)c(F)c1 (as salt: hydrochloric acid salt) [Example 1, 4-(2,4-DIFLUOROPHENYL)PIPERIDINE] gave a melting point of 256 to 258 °C.

With Fc1ccc(C2CCNCC2)cc1F (as salt: hydrochloric acid salt) [Example 4, 4-(3,4-DIFLUOROPHENYL)PIPERIDINE] the melting point was 255 to 256 °C.

Clc1ccc(C2CCNCC2)cc1Cl (as salt: hydrochloric acid salt) [Example 6, 4-(3,4-DICHLOROPHENYL)PIPERIDINE] gave a melting point of 170 °C.

With Fc1cc(Cl)cc(C2CCNCC2)c1 (as salt: hydrochloric acid salt) [Example 10, 4-(3-CHLORO-5-FLUOROPHENYL)PIPERIDINE] the melting point was 243 °C.

Work on CN1CCC(c2ccc(F)cc2F)CC1 (as salt: hydrochloric acid salt) [Example 11, 4-(2,4-DIFLUOROPHENYL)-1-METHYLPIPERIDINE] yielded a melting point of 198 °C.

Fc1ccc(C2CCNCC2)cc1Cl (as salt: oxalic acid salt) [Example 9, 4-(3-CHLORO-4-FLUOROPHENYL)PIPERIDINE] gave a melting point of 147 °C.

For Fc1ccc(C2CCNCC2)c(F)c1 [Example 1, 4-(2,4-DIFLUOROPHENYL)PIPERIDINE], the “levels of dopamine and norepinephrine in the cortex (microdialysis)” value (shortened to “levels of dopamine and norepinephrine”) [2] was “elevate the levels of dopamine and norepinephrine in the cortex”.

For Fc1cc(F)cc(C2CCNCC2)c1 [Example 3, 4-(3,5-DIFLUOROPHENYL)PIPERIDINE], the “levels of dopamine and norepinephrine” value [2] was “elevate the levels of dopamine and norepinephrine in the cortex”.

In the case of Fc1ccc(C2CCNCC2)cc1F [Example 4, 4-(3,4-DIFLUOROPHENYL)PIPERIDINE], the “levels of dopamine and norepinephrine” value [2] is reported as “elevate the levels of dopamine and norepinephrine in the cortex”.

In the case of Clc1ccc(C2CCNCC2)cc1Cl [Example 6, 4-(3,4-DICHLOROPHENYL)PIPERIDINE], the “levels of dopamine and norepinephrine” value [2] is reported as “elevate the levels of dopamine and norepinephrine in the cortex”.

In the case of Fc1ccc(C2CCNCC2)cc1Cl [Example 9, 4-(3-CHLORO-4-FLUOROPHENYL)PIPERIDINE], the “levels of dopamine and norepinephrine” value [2] is reported as “elevate the levels of dopamine and norepinephrine in the cortex”.

With Fc1cc(Cl)cc(C2CCNCC2)c1 [Example 10, 4-(3-CHLORO-5-FLUOROPHENYL)PIPERIDINE] the “levels of dopamine and norepinephrine” value [2] was “elevate the levels of dopamine and norepinephrine in the cortex”.

With CN1CCC(c2ccc(F)cc2F)CC1 [Example 11, 4-(2,4-DIFLUOROPHENYL)-1-METHYLPIPERIDINE] the “levels of dopamine and norepinephrine” value [2] was “elevate the levels of dopamine and norepinephrine in the cortex”.

For Fc1ccc(C2CCNCC2)c(F)c1 [drawing 13], the change in vivo at 100 µmol/kg [1] was -36%.

For Fc1cc(F)cc(C2CCNCC2)c1 [drawing 15], the change in vivo at 100 µmol/kg [1] was -19%.

Work on Clc1ccc(C2CCNCC2)cc1Cl [drawing 16] yielded a change in vivo at 100 µmol/kg [1] of -14%.

With Fc1ccc(C2CCNCC2)cc1Cl [drawing 17] the change in vivo at 100 µmol/kg [1] was -29%.

Fc1cc(Cl)cc(C2CCNCC2)c1 [drawing 18] showed a change in vivo at 100 µmol/kg [1] of -26%.

With CN1CCC(c2ccc(F)cc2F)CC1 [drawing 19] the change in vivo at 100 µmol/kg [1] was -41%.

In the case of CN1CCN2c3ncccc3Cc3ccccc3C2C1 (centres unmarked) [mirtazapine, reference compound], the “extracellular norepinephrine and dopamine in the cortex (microdialysis)” value ([2]; 10 mg/kg s.c., p.f. cortex, FIG. 10) is reported as “increase predominantly extracellular norepinephrine and dopamine in the cortex”.

With CCCN1CCC(c2ccc(Cl)c(C(F)(F)F)c2)CC1 [reference compound] the change in vivo at 100 µmol/kg [1] was 94%.

CCCN1CCC(c2ccc(F)c(C(F)(F)F)c2)CC1 [reference compound] showed a change in vivo at 100 µmol/kg [1] of 94%.

In the case of CCCN1CCC(c2cc(F)cc(C(F)(F)F)c2)CC1 [reference compound], the change in vivo at 100 µmol/kg [1] is reported as 239%.

Work on CCN1CCC(c2cc(F)cc(C(F)(F)F)c2)CC1 [reference compound] yielded a change in vivo at 100 µmol/kg [1] of 232%.

For CCN1CCC(c2ccc(F)c(C(F)(F)F)c2)CC1 [reference compound], the change in vivo at 100 µmol/kg [1] was 75%.

With CCCN1CCC(c2cccc(S(C)(=O)=O)c2)CC1 [reference compound] the change in vivo at 100 µmol/kg [1] was 114%.
